Assay results reported in ChEMBL document CHEMBL1201862, “PubChem BioAssay data set” (2004).
“And” between values parts separate entries of the source, which are not always exact repeats. Identical values can stand only once. The source made the active and inactive calls. Cut-off read from the data, not from the text of the source, for most assays here: actives have a measured EC50 and inactives only a lower limit.

Columns and labels:
[1] = HEp-2 cell cytotoxicity, dose response, cytotoxicity control for RSV inhibitor project, HTS (AID 2410); type: functional; conditions: human respiratory syncytial virus
[2] = target: FAD-linked sulfhydryl oxidase ALR (Homo sapiens, UniProt P55789); assay: inhibitors of human ALR sulfhydryl oxidase, dose response, biochemical, H2O2 detection, luminescence, cherry-pick (AID 493248)
Chain of FAD-linked sulfhydryl oxidase ALR (P55789 whole entry): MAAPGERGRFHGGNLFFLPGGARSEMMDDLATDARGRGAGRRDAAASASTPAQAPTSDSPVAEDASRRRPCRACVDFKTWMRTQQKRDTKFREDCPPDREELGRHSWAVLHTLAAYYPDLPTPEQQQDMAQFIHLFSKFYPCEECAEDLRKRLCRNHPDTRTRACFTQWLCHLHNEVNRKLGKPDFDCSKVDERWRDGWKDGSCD

[3] = target: T1, Heat shock factor protein 1 (Mus musculus, UniProt P38532); assay: HSF1 potentiators in luciferase reporter cells, confirmation, cell-based, NIH3T3, luminescence, dose retest (AID 435004); type: functional;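 note: stress induced by proteasome inhibitor MG132 added 30 min after compound; luciferase reporter driven by HSF1 response element in NIH3T3 cells; actives raise luminescence as potentiators of the MG132 stress response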
T1 sequence (P38532 whole entry): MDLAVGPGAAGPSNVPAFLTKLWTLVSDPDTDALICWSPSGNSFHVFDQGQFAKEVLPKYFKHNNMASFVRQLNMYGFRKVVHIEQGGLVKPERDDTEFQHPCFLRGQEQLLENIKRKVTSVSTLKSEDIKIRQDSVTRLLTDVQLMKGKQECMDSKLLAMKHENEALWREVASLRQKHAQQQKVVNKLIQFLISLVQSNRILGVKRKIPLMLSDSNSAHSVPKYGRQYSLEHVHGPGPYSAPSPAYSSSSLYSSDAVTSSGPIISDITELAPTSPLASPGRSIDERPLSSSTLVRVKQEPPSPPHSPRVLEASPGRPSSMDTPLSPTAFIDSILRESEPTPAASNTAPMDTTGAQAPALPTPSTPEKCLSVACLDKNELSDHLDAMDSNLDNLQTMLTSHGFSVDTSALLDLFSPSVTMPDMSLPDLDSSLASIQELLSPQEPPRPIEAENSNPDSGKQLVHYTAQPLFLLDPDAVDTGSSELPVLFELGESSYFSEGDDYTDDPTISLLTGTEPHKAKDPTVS

[4] = Luminescence Cell-Based Dose Confirmation HTS to Identify Activators of 5'UTR Stem-Loop Driven Alpha-Synuclein mRNA Translation in H4 Neuroglioblastoma Cells. [Related pubchem assays: 1829 (Project Summary), 1814 (Primary HTS)]; type: functional
[5] = Luminescence Cell-Based Dose Response HTS to Identify Activators of Luciferase Translation or Activity in H4 […] Cells. [Related pubchem assays: 1829 (Project Summary), 1814 (Primary HTS)]; type: functional
H4 = assay: Luminescence Cell-Based Dose Response HTS to Identify Activators of 5'UTR Stem-Loop Driven Prion Protein mRNA Translation in H4 Neuroglioblastoma Cells. [Related pubchem assays: 1829 (Project Summary), 1814 (Primary HTS)]; type: functional; conditions: Homo sapiens
[6] = target: T1, Heat shock factor protein 1; assay: inhibition of MG132-induced HSE-luciferase signal, confirmation, cell-based, NIH3T3, luminescence, dose retest (AID 2382); type: functional;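 note: NIH3T3 fibroblasts with HSF1-driven luciferase reporter stressed by proteasome inhibitor MG132; luminescence from HSF1-driven luciferase expression after 8 hours of MG132 stress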
Cytochrome P450 2C9 = Cytochrome P450 2C9 (Homo sapiens, UniProt P11712)
Chain of Cytochrome P450 2C9 (P11712 whole entry): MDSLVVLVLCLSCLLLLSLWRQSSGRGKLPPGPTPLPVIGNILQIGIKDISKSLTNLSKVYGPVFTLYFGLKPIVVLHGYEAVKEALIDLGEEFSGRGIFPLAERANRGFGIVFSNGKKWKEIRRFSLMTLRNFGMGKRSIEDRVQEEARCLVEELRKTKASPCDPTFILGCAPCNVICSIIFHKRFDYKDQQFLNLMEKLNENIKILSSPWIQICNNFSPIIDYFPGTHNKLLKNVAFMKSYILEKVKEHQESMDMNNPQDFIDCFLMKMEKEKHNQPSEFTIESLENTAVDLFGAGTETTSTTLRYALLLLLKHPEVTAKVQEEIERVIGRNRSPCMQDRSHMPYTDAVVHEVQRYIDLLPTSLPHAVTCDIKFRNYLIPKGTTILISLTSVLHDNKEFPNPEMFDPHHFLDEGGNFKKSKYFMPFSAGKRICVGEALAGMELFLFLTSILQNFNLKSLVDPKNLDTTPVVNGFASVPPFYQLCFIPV

Cytochrome P450 3A4 = Cytochrome P450 3A4 (Homo sapiens, UniProt P08684);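 note: CYP3A4 tested as one member of a cytochrome P450 panel screen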
Chain of Cytochrome P450 3A4 (P08684 whole entry): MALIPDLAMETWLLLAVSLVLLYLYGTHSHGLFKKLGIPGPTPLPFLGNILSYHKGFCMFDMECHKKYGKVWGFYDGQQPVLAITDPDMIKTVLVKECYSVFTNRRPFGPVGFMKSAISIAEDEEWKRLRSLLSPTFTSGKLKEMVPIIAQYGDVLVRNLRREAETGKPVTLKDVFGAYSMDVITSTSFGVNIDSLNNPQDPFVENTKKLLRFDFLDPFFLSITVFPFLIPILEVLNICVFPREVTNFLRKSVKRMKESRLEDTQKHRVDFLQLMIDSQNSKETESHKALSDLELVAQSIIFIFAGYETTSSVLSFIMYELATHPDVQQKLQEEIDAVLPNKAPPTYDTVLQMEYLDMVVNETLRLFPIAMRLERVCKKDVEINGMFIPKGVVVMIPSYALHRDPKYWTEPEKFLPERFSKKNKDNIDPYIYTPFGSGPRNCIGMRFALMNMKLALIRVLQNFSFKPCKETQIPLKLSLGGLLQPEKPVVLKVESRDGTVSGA

[7] = inhibitors of intracellular T. cruzi replication, confirmation, NIH3T3 host cells, beta-gal luminescence (AID 2044); type: functional, cell-based;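 note: intracellular parasites grown in NIH/3T3 mouse fibroblasts as host cells; luminescent beta-galactosidase reporter signal from transgenic T. cruzi replicating inside host cells; inhibitors lower the luminescence signal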
[8] = cytotoxicity toward NIH3T3 fibroblasts, dose response, counter-screen, cell-based, ATP luminescence, mouse fibroblasts (AID 2010); type: functional; conditions: NIH3T3;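 note: cells exposed to compound for about 90 hours before reading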
[9] = Luminescence Cell-Based Dose Retest to Confirm Inhibitors of Cancer Stem Cells. [Related pubchem assays (depositor defined):AID2717, AID2721]; type: functional, Homo sapiens; conditions: Homo sapiens
Cytochrome P450 2D6 = Cytochrome P450 2D6 (Homo sapiens, UniProt P10635);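 note: CYP2D6 member of a cytochrome P450 panel assay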
Chain of Cytochrome P450 2D6 (P10635 whole entry): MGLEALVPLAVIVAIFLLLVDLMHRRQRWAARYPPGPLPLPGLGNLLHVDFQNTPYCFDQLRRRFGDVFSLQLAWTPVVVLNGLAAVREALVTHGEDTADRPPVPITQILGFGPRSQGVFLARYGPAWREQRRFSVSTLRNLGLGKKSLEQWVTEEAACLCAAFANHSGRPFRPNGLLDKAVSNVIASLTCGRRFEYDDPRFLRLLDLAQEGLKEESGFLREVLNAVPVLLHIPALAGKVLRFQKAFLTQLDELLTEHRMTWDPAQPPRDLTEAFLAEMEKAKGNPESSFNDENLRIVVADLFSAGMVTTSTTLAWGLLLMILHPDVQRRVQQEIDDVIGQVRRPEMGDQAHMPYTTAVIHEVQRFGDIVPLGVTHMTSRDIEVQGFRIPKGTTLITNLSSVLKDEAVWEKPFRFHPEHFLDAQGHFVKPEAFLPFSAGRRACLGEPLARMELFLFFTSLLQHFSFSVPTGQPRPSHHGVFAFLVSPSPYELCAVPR

[10] = inhibitors of firefly luciferase expression or activity, dose response, H4 neuroglioma cells, luminescence (AID 1990); type: functional, cell-based
[11] = Luminescence Cell-Based Dose Response HTS to Identify Inhibitors of 5'UTR Stem-Loop Driven Prion Protein mRNA Translation in H4 Neuroglioblastoma Cells. [Related pubchem assays: 1827 (Project Summary), 1813 (Primary HTS)]; type: functional
[12] = inhibitors of SNCA 5'UTR-driven reporter translation, confirmation, H4 neuroglioma cells, luminescence (AID 1988); type: functional, cell-based

Compound: COc1ccc(Nc2cccc(Cl)c2)c(C(=O)O)c1
- CC50 [1]: 25.3 µM (active)
- AC50 [2]: 2.02 µM (active)

Compound: O=C(CCCc1ccccc1)Nc1ccc2c(c1)OCCO2
- EC50 [3]: 32.2 µM (active)

Compound: COc1ccc(C2C=C(C)Nc3ncnn32)cc1 (stereo not given)
- EC50 [4]: 19.2 µM (active)
- EC50 [5]: 50.5 µM (active)
- EC50 (H4): > 120 µM (not active)

Compound: O=C(O)c1ccc(N/N=C/c2cn(-c3ccccc3)nc2-c2cccs2)cc1
- AC50 [2]: 3.74 µM (active)

Compound: CCOC(=O)c1cc(CC)sc1NC=C1C(=O)CCCC1=O
- EC50 [6]: > 195 µM (not active)

Compound: COc1cc(NC(=S)NC(=O)c2c(OC)cccc2OC)ccc1NC(=O)c1cccs1
- AC50 (Cytochrome P450 2C9): 1.41 µM (inconclusive)

Compound: c1ccc(-c2nnsc2Sc2ccccn2)cc1
- EC50 [4]: 18.3 µM (active)
- EC50 [5]: 11.7 µM (active)
- EC50 (H4): 16.3 µM (active)

Compound: CC(OC(=O)CN1C(=O)c2ccccc2C1=O)C(=O)NC1CCCCC1C (stereo not given)
- EC50 [6]: > 195 µM (not active)

Compound: N#Cc1c(NC(=O)CSc2nnc(-c3ccccc3)o2)sc2c1CCCC2
- EC50 [3]: > 260 µM (inactive)

Compound: N#CCCn1c(=O)c(-c2cc(F)cc(F)c2)nc2cnc(Oc3cccc(Cl)c3)nc21
- AC50 (Cytochrome P450 3A4): 10 µM (inconclusive)
- AC50 (Cytochrome P450 2C9): 7.94 µM (inconclusive)

Compound: CCOC(=O)C1CCN(C(=O)CCS(=O)(=O)c2ccc3c(c2)CC(C)N3C(=O)CC)CC1 (stereo not given)
- EC50 [6]: > 195 µM (not active)

Compound: CCN1CC(CN(C)Cc2nc(COc3ccccc3)no2)CC1=O (stereo not given)
- EC50 [3]: > 260 µM (inactive)

Compound: N#Cc1cc(Cl)c(NCC2CCCO2)cc1C#N (stereo not given)
- CC50 [1]: 20.9 µM (active)
- EC50 [3]: > 260 µM (inactive)

Compound: Cc1ccccc1N(CC(=O)NC1CCCC1)C(=O)c1csnn1
- EC50 [4]: > 120 µM (not active)
- EC50 [5]: > 120 µM (not active)
- EC50 (H4): > 120 µM (not active)

Compound: CCN(CC)S(=O)(=O)c1cccc(C(=O)OCC(=O)N2CC(=O)Nc3ccccc32)c1
- EC50 [3]: > 260 µM (inactive)

Compound: CCCNC(=O)Nc1ccc(C)cc1C
- EC50 [3]: > 260 µM (inactive)

Compound: COc1cc2c(cc1OC)CN(c1ccc([N+](=O)[O-])cc1C#N)CC2
- AC50 [2]: > 100 µM (inactive)

Compound: COc1cccc(NC(=O)Nc2nnc(Cc3ccccc3F)s2)c1
- EC50 [6]: > 195 µM (not active)

Compound: Cc1ccc(C(=O)CSc2cnc3ccccc3n2)cc1C
- EC50 [6]: 4.3 µM (active)

Compound: COc1ccc(CSC2=NCCN2)cc1Cl
- AC50 [2]: 0.021 µM (active)

Compound: COc1cc(OC)c2ccc(=O)oc2c1C(CCN1CCCC1)c1ccc(N(C)C)cc1 (stereo not given)
- AC50 [2]: 3.33 µM (active)

Compound: COc1ccc(OC)c(CNc2ccc3c(c2)nc(C)n3C)c1
- AC50 [2]: 5.53 µM (active)

Compound: CCCCN(CCCNc1[nH]cnc2ncnc1-2)c1ccccc1
- AC50 [2]: 0.108 µM (active)

Compound: O=C(Nc1cnn(C23CC4CC(CC(C4)C2)C3)c1)c1cc(-c2ccccc2)on1
- EC50 [7]: 1.55 µM (active)
- EC50 [8]: > 60 µM (not active)
- AC50 [9]: 0.296 µM (active)

Compound: Cc1cc(Nc2cccc(Cl)c2)nc(-c2ccccc2O)n1
- EC50 [6]: > 195 µM (not active)

Compound: CCOC(=O)c1c(NC(=O)c2ccccc2)sc2c(O)c(CN(CC)CC)ccc12
- EC50 [6]: > 195 µM (not active)

Compound: COn1c(SC(C)C)nc2ccccc2c1=O
- AC50 (Cytochrome P450 2C9): 17.8 µM (inconclusive)

Compound: O=C(N1CCOCC1)C12CCC3CC(CC(C3)C1)C2
- EC50 [6]: > 195 µM (not active)

Compound: COc1ccc(OC)c(-c2csc(NC(=O)C3=NN(c4ccccc4)C(=O)CC3)n2)c1
- EC50 [4]: > 120 µM (not active)
- EC50 [5]: > 120 µM (not active)
- EC50 (H4): > 120 µM (not active)

Compound: CCc1ccccc1NS(=O)(=O)c1cc2c3c(c1)CCN3C(=O)CC2
- EC50 [3]: > 260 µM (inactive)

Compound: Cc1ccccc1Nc1nnc(C)c(O)n1
- EC50 [3]: > 260 µM (inactive)

Compound: Cc1cc2oc(C(=O)Nc3c(C)n(C)n(-c4ccccc4)c3=O)c(C)c2cc1C
- EC50 [4]: 46.1 µM (active)
- EC50 [5]: > 120 µM (not active)
- EC50 (H4): > 120 µM (not active)

Compound: COc1ccc(N2CCN(CC(=O)Nc3ccc(C)cc3)CC2)cc1
- AC50 [2]: 3 µM (active)

Compound: O=C(Cn1cnc2c(cnn2-c2ccccc2)c1=O)NCc1ccccc1
- EC50 [4]: 8.08 µM (active)
- EC50 [5]: 9.72 µM (active)
- EC50 (H4): 89.8 µM (active)

Compound: CCOc1ccc(S(=O)(=O)N2CCN=C2c2ccccc2)cc1
- AC50 [9]: 3.19 µM (active)

Compound: COc1ccc(C)cc1-n1c(SCC(=O)Nc2cccc(C(=O)O)c2)nc2ccccc2c1=O
- EC50 [3]: > 260 µM (inactive)

Compound: CCCCOc1ccc(S(=O)(=O)N2CCN(c3ccc(N4CCN(CC)CC4)nn3)CC2)cc1
- AC50 [9]: < 0.16 µM (active)

Compound: Nc1ccc(CCc2nc3ccccc3o2)cc1
- AC50 [2]: 1.16 µM (active)

Compound: COc1ccccc1-c1nnc(S)n1Cc1ccccc1
- AC50 [2]: 3.09 µM (active)

Compound: Cc1ccc(N/C([S-])=C(/C(=O)c2ccc(C)c([N+](=O)[O-])c2)[n+]2ccccc2)cc1C
- EC50 [4]: 2.37 µM (active)
- EC50 [5]: 16.1 µM (active)
- EC50 (H4): 46.6 µM (active)
- AC50 (Cytochrome P450 2D6): 25.1 µM (inconclusive)
- AC50 (Cytochrome P450 3A4): 11.2 µM (inconclusive)

Compound: CC(C)C[C@H]1C(=O)N2CCC[C@@H]2[C@]2(O)O[C@](NC(=O)[C@H]3C=C4c5cccc6[nH]c(Br)c(c56)C[C@H]4N(C)C3)(C(C)C)C(=O)N12
- AC50 (Cytochrome P450 2C9): 12.6 µM (inconclusive) and 15.8 µM (inconclusive)

Compound: O=C(Nc1ccc(S(=O)(=O)N2CCCCC2)cc1)C1CCN(C(=O)c2ccco2)CC1
- EC50 [3]: > 260 µM (inactive)

Compound: CCCCn1c(N(CCOC(C)=O)C(C)=O)nc2ccccc21
- EC50 [6]: > 195 µM (not active)

Compound: N#Cc1cccn1-c1nccs1
- EC50 [6]: > 195 µM (not active)

Compound: CCN(CC(=O)Nc1cccc(OC)c1)CC(=O)Nc1ccc(Br)c(C)c1
- EC50 [3]: 61.1 µM (active)

Compound: Cn1c(-c2ccsc2)c(-c2cccs2)c2cc(-c3ccc4[nH]ccc4c3)ccc21
- AC50 [9]: 9.76 µM (active)

Compound: CCCC(NC(=O)COc1cc2c(c3oc(=O)cc(C)c13)CCC(C)(C)O2)C(=O)O (stereo not given)
- EC50 [6]: > 195 µM (not active)

Compound: Sc1nnc(Cc2noc3ccccc23)n1-c1ccccc1
- AC50 [2]: 5.61 µM (active)

Compound: COc1cc(NC(=O)Nc2cccc(C(C)=O)c2)cc(OC)c1OC
- AC50 [2]: 1.72 µM (active)

Compound: COc1ccccc1Nc1ccc2nonc2c1[N+](=O)[O-]
- EC50 [6]: > 195 µM (not active)

Compound: COc1ccc(SCC2CN(C)CCC2c2ccc(F)cc2)cc1 (stereo not given)
- EC50 [3]: > 260 µM (inactive)

Compound: COc1cc(Cl)c(C)cc1NC(=O)CNC(=O)Cn1cnc2ccccc2c1=O
- AC50 (Cytochrome P450 2C9): 10 µM (inconclusive)

Compound: CSc1nccn1C(=O)c1ccccc1[N+](=O)[O-]
- EC50 [6]: > 195 µM (not active)

Compound: O=c1c2c3c(sc2nc(NCCOCCO)n1Cc1ccco1)CCCCC3
- EC50 [6]: > 195 µM (not active)

Compound: CC(=O)/C(=N/Nc1ccc(Br)cc1)N1CCCc2ccccc21
- CC50 [1]: 12.8 µM (active)
- EC50 [10]: > 120 µM (not active)
- EC50 [11]: > 120 µM (not active)
- EC50 [12]: 14.5 µM (active)
- EC50 [3]: 113 µM (active)

Compound: N#C/C(=C/c1ccc(N2CCCCC2)o1)c1cccc(F)c1
- EC50 [4]: 0.141 µM (active)
- EC50 [5]: 0.355 µM (active)
- EC50 (H4): 16.5 µM (active)
- EC50 [7]: 3.55 µM (active)
- EC50 [8]: > 60 µM (not active)

Compound: C=CCN1/C(=N/C(=O)CC)SC2CS(=O)(=O)CC21 (stereo not given)
- AC50 (Cytochrome P450 2C9): 11.2 µM (inconclusive)

Compound: CCN(CC)CCN1C(=O)C(O)=C(C(=O)c2ccc(OC(C)C)cc2)C1c1cccs1 (stereo not given)
- EC50 [4]: 15.7 µM (active)
- EC50 [5]: 20.1 µM (active)
- EC50 (H4): 35 µM (active)

Compound: [O-][n+]1onc2c1CCc1nnccc1-2
- EC50 [4]: 11.4 µM (active)
- EC50 [5]: 8.72 µM (active)
- EC50 (H4): > 120 µM (not active)

Compound: O=C(Nc1ccccc1)OCCOc1ccccc1
- EC50 [5]: 30.2 µM (active)
- EC50 (H4): 93.6 µM (active)
- EC50 [6]: > 195 µM (not active)
